According to BindingDB's records for doi:10.1016/j.chembiol.2016.10.011 (H. Lee Moffitt Cancer Center & Research Institute, 2016):

What was measured:
[1] = molecular target: Poly [ADP-ribose] polymerase 1 (Homo sapiens, UniProt P09874); test: In Vitro PARP1 Activity Assay
Experimental: Inhibition of PARP1 was assessed using the Universal Chemiluminescent PARPKit. Luminescence readings were normalized to controls and fit to a sigmoidaldose-response curve using GraphPad Prism 6 to determine IC50 values.

[2] = molecular target: T1, GDH/6PGL endoplasmic bifunctional protein (Homo sapiens, UniProt O95479); test: H6PD Activity Assay
T1 sequence (O95479 whole entry): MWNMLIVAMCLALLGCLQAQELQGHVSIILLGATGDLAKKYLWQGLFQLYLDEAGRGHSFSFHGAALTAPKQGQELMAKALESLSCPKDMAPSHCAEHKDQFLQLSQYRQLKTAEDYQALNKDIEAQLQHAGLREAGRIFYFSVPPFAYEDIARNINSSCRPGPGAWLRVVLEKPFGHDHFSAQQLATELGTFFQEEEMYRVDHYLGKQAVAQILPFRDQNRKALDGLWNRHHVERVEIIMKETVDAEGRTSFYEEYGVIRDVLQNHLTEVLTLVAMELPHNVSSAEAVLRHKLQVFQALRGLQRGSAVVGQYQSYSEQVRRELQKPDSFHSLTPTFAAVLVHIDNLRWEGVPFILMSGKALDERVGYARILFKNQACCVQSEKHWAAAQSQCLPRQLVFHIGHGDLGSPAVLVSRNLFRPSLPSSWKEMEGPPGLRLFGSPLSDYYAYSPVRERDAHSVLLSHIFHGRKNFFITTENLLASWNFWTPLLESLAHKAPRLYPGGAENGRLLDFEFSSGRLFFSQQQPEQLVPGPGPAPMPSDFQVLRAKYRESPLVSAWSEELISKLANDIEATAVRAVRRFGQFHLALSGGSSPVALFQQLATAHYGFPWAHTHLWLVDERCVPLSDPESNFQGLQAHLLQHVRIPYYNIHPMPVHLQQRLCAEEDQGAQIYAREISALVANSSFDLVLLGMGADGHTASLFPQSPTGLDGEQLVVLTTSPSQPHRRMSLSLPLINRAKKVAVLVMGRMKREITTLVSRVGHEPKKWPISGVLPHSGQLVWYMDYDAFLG
Experimental: HEK293 H6PD-OE and HEK293 pellets were lysed and the lysate was quantified with the Bradford protein assay. Reaction mix containing galactose-6-phosphate (Gal6P) was combined with increasing concentrations of PARPi or DMSO. As an additional control, reaction mix without substrate was combined with HEK293 H6PD-OE lysate. Lysate from HEK293 or HEK293 H6PD-OE was added to each well to start the reactions. The absorbance at 340 nm (NADPH) was measured for 90 min at 10 min intervals. The 60 min data, which were within the linear range, was used for analysis. Background absorbance was subtracted and the H6PD activity of theHEK293 H6PD-OE lysates treated with PARPi was normalized to the DMSO control.

Sequence of Poly [ADP-ribose] polymerase 1 (P09874 whole entry): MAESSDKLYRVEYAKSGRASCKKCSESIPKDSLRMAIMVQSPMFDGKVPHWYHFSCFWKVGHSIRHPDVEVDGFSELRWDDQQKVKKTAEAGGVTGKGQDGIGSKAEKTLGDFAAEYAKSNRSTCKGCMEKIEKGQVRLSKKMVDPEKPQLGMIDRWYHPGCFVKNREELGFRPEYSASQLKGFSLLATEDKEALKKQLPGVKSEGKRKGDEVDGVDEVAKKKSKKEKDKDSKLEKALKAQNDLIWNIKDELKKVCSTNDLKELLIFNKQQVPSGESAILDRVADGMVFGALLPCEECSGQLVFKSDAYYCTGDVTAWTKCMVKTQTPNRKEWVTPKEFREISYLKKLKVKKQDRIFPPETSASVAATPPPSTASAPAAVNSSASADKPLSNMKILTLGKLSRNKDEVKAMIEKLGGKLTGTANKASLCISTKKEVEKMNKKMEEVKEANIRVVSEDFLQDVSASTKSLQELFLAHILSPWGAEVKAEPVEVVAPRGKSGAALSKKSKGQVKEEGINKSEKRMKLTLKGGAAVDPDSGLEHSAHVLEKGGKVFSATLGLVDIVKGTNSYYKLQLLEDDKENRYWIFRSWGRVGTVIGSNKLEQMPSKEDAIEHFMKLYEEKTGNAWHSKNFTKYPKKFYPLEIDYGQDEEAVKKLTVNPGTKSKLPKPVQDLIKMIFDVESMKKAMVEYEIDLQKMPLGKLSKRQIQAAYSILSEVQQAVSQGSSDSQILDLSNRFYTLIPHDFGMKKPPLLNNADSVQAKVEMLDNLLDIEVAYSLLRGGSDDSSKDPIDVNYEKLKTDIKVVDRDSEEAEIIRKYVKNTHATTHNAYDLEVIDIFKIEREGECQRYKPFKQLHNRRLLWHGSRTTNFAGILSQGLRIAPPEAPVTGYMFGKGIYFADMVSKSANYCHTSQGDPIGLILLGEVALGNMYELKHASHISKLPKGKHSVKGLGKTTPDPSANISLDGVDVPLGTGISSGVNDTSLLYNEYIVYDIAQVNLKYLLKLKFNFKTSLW

| SMILES | IC50 [1] | IC50 [2] |
| --- | --- | --- |
| NCCCN1CCC[C@@H](c2ccc(-n3cc4cccc(C(N)=O)c4n3)cc2)C1 [c-Niraparib] | 48.4 nM |  |
| CNCc1ccc(-c2[nH]c3cc(F)cc4c3c2CCNC4=O)cc1 [AG-014699] |  | 18000 nM |

The remaining lines, values ahead:

| IC50 [1] | IC50 [2] | SMILES |
| --- | --- | --- |
| 4.4 nM |  | CN(CCCN)Cc1ccc(-c2[nH]c3cc(F)cc4c3c2CCNC4=O)cc1 [c-Rucaparib] |
| 8.4 nM |  | C[C@]1(c2nc3c(C(N)=O)cccc3[nH]2)CCCN1CCCN [c-Veliparib] |
| 5.9 nM |  | NCCCC(=O)N1CCN(C(=O)c2cc(Cc3n[nH]c(=O)c4ccccc34)ccc2F)CC1 [c-Olaparib] |
